Assay results reported in patent US6737383B1, “Herbicidal oxadiazolidines” (priority 1999, dated 2004).

How the values were obtained:
[1] = tested on: smallflower flatsedge; experiment: Test B flood test smallflower flatsedge; assay type: in vivo, Cyperus difformis
Procedure, shortened: (§1)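 Read-out is a visual response score from 0 (no effect) to 10 (complete control), assigned by comparison with untreated controls. Treatment was applied at the 2-leaf stage, and plants stayed in the greenhouse for twelve to sixteen days before scoring.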

[2] = tested on: blackgrass; experiment: Test B pre/postemergence blackgrass; assay type: in vivo, Alopecurus myosuroides
Procedure, shortened: (§2)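 Herbicidal effect was estimated by eye on a ten-point control scale after plants spent twelve to sixteen days in a greenhouse following soil or foliar treatment. Foliar sprays targeted plants at one to four leaves; all doses were formulated in a non-phytotoxic solvent with surfactant.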

[3] = tested on: wheat; experiment: Test B pre/postemergence wheat; assay type: in vivo, Triticum aestivum
Procedure, shortened: as §2

[4] = tested on: rape; experiment: Test B pre/postemergence rape; assay type: in vivo, Brassica napus
Procedure, shortened: as §2

[5] = tested on: soybean; experiment: Test B pre/postemergence soybean; assay type: in vivo, Glycine max
Procedure, shortened: as §2

[6] = tested on: bedstraw; experiment: Test B pre/postemergence bedstraw; assay type: in vivo, Galium aparine
Procedure, shortened: as §2

[7] = tested on: surinam grass; experiment: Test B pre/postemergence surinam grass; assay type: in vivo, Brachiaria decumbens
Procedure, shortened: as §2

[8] = tested on: purple nutsedge; experiment: Test B pre/postemergence purple nutsedge; assay type: in vivo, Cyperus rotundus
Procedure, shortened: as §2

[9] = tested on: sugar beet; experiment: Test B pre/postemergence sugar beet; assay type: in vivo, Beta vulgaris
Procedure, shortened: as §2

[10] = tested on: giant foxtail; experiment: Test B pre/postemergence giant foxtail; assay type: in vivo, Setaria faberii
Procedure, shortened: as §2

[11] = tested on: cocklebur; experiment: Test B pre/postemergence cocklebur; assay type: in vivo, Xanthium strumarium
Procedure, shortened: as §2

[12] = tested on: duck salad; experiment: Test B flood test duck salad; assay type: in vivo, Heteranthera limosa
Procedure, shortened: as §1

[13] = tested on: morningglory; experiment: Test B pre/postemergence morningglory; assay type: in vivo, Ipomoea hederacea
Procedure, shortened: as §2

[14] = tested on: bamyardgrass; experiment: Test B flood test barnyardgrass; assay type: in vivo, Echinochloa crus-galli
Procedure, shortened: as §1

[15] = tested on: wild oat; experiment: Test B pre/postemergence wild oat; assay type: in vivo, Avena fatua
Procedure, shortened: as §2

[16] = tested on: pigweed; experiment: Test B pre/postemergence pigweed; assay type: in vivo, Amaranthus retroflexus
Procedure, shortened: as §2

[17] = Rate 62 g/ha, headed Pre-emergence (flood test species), scale 0 to 10 (0 no effect, 10 complete control)
[18] = Rate 125 g/ha, Pre-emergence, flood test species, scale 0 to 10 where 0 is no effect and 10 is complete control
[19] = Rate 250 g/ha, Pre-emergence, flood-test species, scale 0 to 10, 0 is no effect, 10 is complete control
[20] = Rate 500 g/ha, Pre-emergence, flood test species, scale 0 to 10 (0 no effect, 10 complete control)
[21] = Preemergence, Rate 31 g/ha, visual rating, scale 0 to 10 (0 no effect, 10 complete control)
[22] = Preemergence, Rate 62 g/ha, scale of 0 to 10 where 0 is no effect and 10 is complete control
[23] = Preemergence, Rate 250 g/ha, scale of 0 to 10 where 0 is no effect and 10 is complete control
[24] = Preemergence, Rate 500 g/ha, scale of 0 to 10 where 0 is no effect and 10 is complete control
[25] = Rate 31 g/ha, Postemergence, scale 0 to 10
[26] = Rate 62 g/ha, Postemergence, scale of 0 to 10 where 0 is no effect and 10 is complete control
[27] = Rate 125 g/ha, Postemergence, scale 0 to 10
[28] = Rate 125 g/ha, Preemergence, scale of 0 to 10 where 0 is no effect and 10 is complete control
[29] = Rate 500 g/ha, Postemergence, scale 0 to 10, 0 no effect, 10 complete control

With CC(C)N(C(=O)n1oc(=O)n(N(C)C)c1=O)c1ccccc1 [Compound 225] the “S. Flatsedge plant response rating” value [1, 17] was 0, the “S. Flatsedge plant response rating” value [1, 18] was 0 and the “S. Flatsedge plant response rating” value [1, 19] was 0. For the same compound, the “S. Flatsedge plant response rating” value [1, 20] was 0, the “Blackgrass plant response rating” value [2, 21] was 0 and the “Blackgrass plant response rating” value [2, 22] was 2. The “Blackgrass plant response rating” value [2, 23] was 10, the “Plant response rating, Blackgrass” value [2, 24] was 10 and the “Blackgrass plant response rating” value [2, 25] was 0. The “Blackgrass plant response rating” value [2, 26] was 6, the “Blackgrass plant response rating” value [2, 27] was 9 and the “Blackgrass plant response rating” value [2, 28] was 10. The “Plant response rating (0 to 10; 0 is no effect, 10 is complete control), Blackgrass” value ([2]; Rate 250 g/ha, Postemergence) was 9, the “Blackgrass plant response rating” value [2, 29] was 8 and the “Wheat plant response rating” value [3, 21] was 0. The “Wheat plant response rating” value [3, 22] was 5, the “Wheat plant response rating” value [3, 23] was 8 and the “Plant response rating, Wheat” value [3, 24] was 8. For the same compound, the “Wheat plant response rating” value [3, 26] was 3, the “Wheat plant response rating” value [3, 27] was 6 and the “Wheat plant response rating” value [3, 28] was 6. For the same compound, the “Plant response rating (0 to 10; 0 is no effect, 10 is complete control), Wheat” value ([3]; Rate 250 g/ha, Postemergence) was 7, the “Wheat plant response rating” value [3, 29] was 8 and the “Rape plant response rating” value [4, 21] was 0. The “Rape plant response rating” value [4, 22] was 0, the “Rape plant response rating” value [4, 23] was 0 and the “Plant response rating, Rape” value [4, 24] was 6. The “Rape plant response rating” value [4, 25] was 0, the “Rape plant response rating” value [4, 26] was 0 and the “Rape plant response rating” value [4, 27] was 0. For the same compound, the “Rape plant response rating” value [4, 28] was 0, the “Plant response rating (0 to 10; 0 is no effect, 10 is complete control), Rape” value ([4]; Rate 250 g/ha, Postemergence) was 0 and the “Rape plant response rating” value [4, 29] was 2. The “Soybean plant response rating” value [5, 21] was 0, the “Soybean plant response rating” value [5, 22] was 0 and the “Soybean plant response rating” value [5, 23] was 3. The “Plant response rating, Soybean” value [5, 24] was 6, the “Soybean plant response rating” value [5, 26] was 2 and the “Soybean plant response rating” value [5, 27] was 3. The “Soybean plant response rating” value [5, 28] was 2, the “Plant response rating (0 to 10; 0 is no effect, 10 is complete control), Soybean” value ([5]; Rate 250 g/ha, Postemergence) was 5 and the “Soybean plant response rating” value [5, 29] was 4. The “Bedstraw plant response rating” value [6, 22] was 0, the “Bedstraw plant response rating” value [6, 23] was 0 and the “Plant response rating, Bedstraw” value [6, 24] was 2. The “Bedstraw plant response rating” value [6, 26] was 0, the “Bedstraw plant response rating” value [6, 27] was 0 and the “Bedstraw plant response rating” value [6, 28] was 0. For the same compound, the “Plant response rating (0 to 10; 0 is no effect, 10 is complete control), Bedstraw” value ([6]; Rate 250 g/ha, Postemergence) was 0, the “Bedstraw plant response rating” value [6, 29] was 0 and the “B. signalgrass plant response rating” value [7, 21] was 0. The “B. signalgrass plant response rating” value [7, 22] was 1, the “B. signalgrass plant response rating” value ([7]; Preemergence, Rate 250 g/ha, scale 0 to 10, 0 is no effect, 10 is complete control) was 7 and the “Plant response rating, B. signalgrass” value [7, 24] was 7. For the same compound, the “B. signalgrass plant response rating” value [7, 25] was 0, the “B. signalgrass plant response rating” value [7, 26] was 2 and the “B. signalgrass plant response rating” value ([7]; Rate 125 g/ha, Postemergence, scale 0 (no effect) to 10 (complete control)) was 5. The “B. signalgrass plant response rating” value [7, 28] was 7, the “Plant response rating (0 to 10; 0 is no effect, 10 is complete control), B. signalgrass” value ([7]; Rate 250 g/ha, Postemergence) was 5 and the “B. signalgrass plant response rating” value [7, 29] was 9. For the same compound, the “Nutsedge plant response rating” value [8, 21] was 0, the “Nutsedge plant response rating” value [8, 22] was 7 and the “Nutsedge plant response rating” value [8, 23] was 8. For the same compound, the “Plant response rating, Nutsedge” value [8, 24] was 10, the “Nutsedge plant response rating” value [8, 25] was 0 and the “Nutsedge plant response rating” value [8, 26] was 0. For the same compound, the “Nutsedge plant response rating” value [8, 27] was 0, the “Nutsedge plant response rating” value [8, 28] was 7 and the “Plant response rating (0 to 10; 0 is no effect, 10 is complete control), Nutsedge” value ([8]; Rate 250 g/ha, Postemergence) was 0. The “Nutsedge plant response rating” value [8, 29] was 2, the “Sugarbeets plant response rating” value [9, 21] was 0 and the “Sugarbeets plant response rating” value [9, 22] was 0. For the same compound, the “Sugarbeets plant response rating” value [9, 23] was 5, the “Plant response rating, Sugarbeets” value [9, 24] was 6 and the “Sugarbeets plant response rating” value [9, 26] was 0. For the same compound, the “Sugarbeets plant response rating” value [9, 27] was 0, the “Sugarbeets plant response rating” value [9, 28] was 2 and the “Plant response rating (0 to 10; 0 is no effect, 10 is complete control), Sugarbeets” value ([9]; Rate 250 g/ha, Postemergence) was 3. The “Sugarbeets plant response rating” value [9, 29] was 2, the “Giant foxtail plant response rating” value [10, 21] was 8 and the “Giant foxtail plant response rating” value [10, 22] was 8. The “Giant foxtail plant response rating” value [10, 23] was 10, the “Plant response rating, Giant foxtail” value [10, 24] was 10 and the “Giant foxtail plant response rating” value [10, 25] was 0. The “Giant foxtail plant response rating” value [10, 26] was 8, the “Giant foxtail plant response rating” value [10, 27] was 8 and the “Giant foxtail plant response rating” value [10, 28] was 10. The “Plant response rating (0 to 10; 0 is no effect, 10 is complete control), Giant foxtail” value ([10]; Rate 250 g/ha, Postemergence) was 8, the “Giant foxtail plant response rating” value [10, 29] was 9 and the “Cocklebur plant response rating” value [11, 21] was 0. For the same compound, the “Cocklebur plant response rating” value [11, 22] was 0, the “Cocklebur plant response rating” value [11, 23] was 2 and the “Plant response rating, Cocklebur” value [11, 24] was 2. For the same compound, the “Cocklebur plant response rating” value [11, 25] was 0, the “Cocklebur plant response rating” value [11, 26] was 0 and the “Cocklebur plant response rating” value [11, 27] was 0. The “Cocklebur plant response rating” value [11, 28] was 2, the “Plant response rating (0 to 10; 0 is no effect, 10 is complete control), Cocklebur” value ([11]; Rate 250 g/ha, Postemergence) was 0 and the “Cocklebur plant response rating” value [11, 29] was 0. The “Ducksalad plant response rating” value [12, 17] was 0, the “Ducksalad plant response rating” value [12, 18] was 0 and the “Ducksalad plant response rating” value [12, 19] was 0. The “Ducksalad plant response rating” value [12, 20] was 0, the “Morningglory plant response rating” value [13, 21] was 0 and the “Morningglory plant response rating” value [13, 22] was 0. The “Morningglory plant response rating” value [13, 23] was 4, the “Plant response rating, Morningglory” value [13, 24] was 8 and the “Morningglory plant response rating” value [13, 25] was 2. For the same compound, the “Morningglory plant response rating” value [13, 26] was 2, the “Morningglory plant response rating” value [13, 27] was 3 and the “Morningglory plant response rating” value [13, 28] was 4. The “Plant response rating (0 to 10; 0 is no effect, 10 is complete control), Morningglory” value ([13]; Rate 250 g/ha, Postemergence) was 6, the “Morningglory plant response rating” value [13, 29] was 6 and the “Barnyardgrass plant response rating” value [14, 17] was 0. The “Barnyardgrass plant response rating” value [14, 18] was 0, the “Barnyardgrass plant response rating” value [14, 19] was 0 and the “Barnyardgrass plant response rating” value [14, 20] was 0. The “Wild oats plant response rating” value [15, 21] was 0, the “Wild oats plant response rating” value [15, 22] was 4 and the “Wild oats plant response rating” value [15, 23] was 10. The “Plant response rating, Wild oats” value [15, 24] was 10, the “Wild oats plant response rating” value [15, 26] was 0 and the “Wild oats plant response rating” value [15, 27] was 2. For the same compound, the “Wild oats plant response rating” value [15, 28] was 7, the “Plant response rating (0 to 10; 0 is no effect, 10 is complete control), Wild oats” value ([15]; Rate 250 g/ha, Postemergence) was 3 and the “Wild oats plant response rating” value [15, 29] was 2. The “Redroot pigweed plant response rating” value [16, 21] was 6, the “Redroot pigweed plant response rating” value [16, 22] was 6 and the “Redroot pigweed plant response rating” value [16, 23] was 10. The “Plant response rating, Redroot pigweed” value [16, 24] was 10, the “Redroot pigweed plant response rating” value [16, 25] was 0 and the “Redroot pigweed plant response rating” value [16, 26] was 0. The “Redroot pigweed plant response rating” value [16, 27] was 0, the “Redroot pigweed plant response rating” value [16, 28] was 7 and the “Plant response rating (0 to 10; 0 is no effect, 10 is complete control), Redroot pigweed” value ([16]; Rate 250 g/ha, Postemergence) was 0. The “Redroot pigweed plant response rating” value [16, 29] was 2.
